The text below walks through data of PubChem BioAssay AID270 (DTP/NCI, 2004).

The subject of this experiment is BDF1 mice, s.c. Lewis lung carcinoma, T/C %. The experiment can be described thus: NCI In Vivo Anticancer Drug Screen. Data for tumor model Lewis Lung Carcinoma (subcutaneous) in B6D2F1 (BDF1) mice. The gist of the method:
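Readout: survival or tumor size, expressed as treated (T) over vehicle control (C). Transplantable tumor implanted in mice; compound given to the treated group.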

Where [1] appears, read: endpoint: median survival time, dose: 1.25 mg/kg/injection, schedule: Q01DX009 (ip), vehicle: saline with Tween-80, higher = longer survival.
Setting [2] is: endpoint: median survival time, dose: 2.5 mg/kg/injection, schedule: Q01DX009 (ip), vehicle: saline with Tween-80, higher = longer survival.
The mark [3] stands for this setting: endpoint: median survival time, dose: 5.0 mg/kg/injection, schedule: Q01DX009 (ip), vehicle: saline with Tween-80, higher = longer survival.
The mark [4] stands for this setting: endpoint: median survival time, dose: 3.12 mg/kg/injection, schedule: Q01DX009 (ip), vehicle: other, higher = longer survival.
Setting [5] is: endpoint: median survival time, dose: 6.25 mg/kg/injection, schedule: Q01DX009 (ip), vehicle: other, higher = longer survival.

Where “and” joins values, the source holds several entries; their conditions need not be identical. Identical values can stand only once. Records with an inconclusive call do not appear.

Consider `C[n+]1ccc(Nc2ccc(NC(=O)c3ccc(Nc4cc[n+](C)c5ccc(N)cc45)cc3N)cc2)cc1`, for which the T/C is, setting by setting: (endpoint: mean tumor weight, dose: 6.25 mg/kg/injection, schedule: Q01DX011 (ip), vehicle: saline, higher = larger tumour) 158 % of control; (endpoint: mean tumor weight, dose: 12.5 mg/kg/injection, schedule: Q01DX011 (ip), vehicle: saline, higher = larger tumour) 40 % of control; (endpoint: median survival time, dose: 3.13 mg/kg/injection, schedule: Q01DX009 (ip), vehicle: Klucel (hydroxypropylcellulose) (HPC), higher = longer survival) 243 % of control; (endpoint: median survival time, dose: 12.5 mg/kg/injection, schedule: Q01DX009 (ip), vehicle: Klucel (hydroxypropylcellulose) (HPC), higher = longer survival) 244 % of control.
With `NC1=NC(=S)C2N=C(N=Nc3ccc(C(=O)NC(CCC(=O)O)C(=O)O)cc3)N=C2N1` (stereo not drawn), the T/C by setting is: (endpoint: median survival time, dose: 0.2 mg/kg/injection, schedule: Q01DX009 (ip), vehicle: Klucel (hydroxypropylcellulose) (HPC), higher = longer survival) 97 % of control; (endpoint: median survival time, dose: 0.4 mg/kg/injection, schedule: Q01DX009 (ip), vehicle: Klucel (hydroxypropylcellulose) (HPC), higher = longer survival) 93 % of control; (endpoint: median survival time, dose: 0.78 mg/kg/injection, schedule: Q01DX009 (ip), vehicle: Klucel (hydroxypropylcellulose) (HPC), higher = longer survival) 110 % of control.
`S=c1nc[nH]c2c1ncn2C1CCCO1` (stereo not drawn): the T/C reads like this: (endpoint: mean tumor weight, dose: 12.5 mg/kg/injection, schedule: Q01DX011 (ip), vehicle: other, higher = larger tumour) 36 % of control; (endpoint: mean tumor weight, dose: 25.0 mg/kg/injection, schedule: Q01DX011 (ip), vehicle: other, higher = larger tumour) 86 % of control; (endpoint: mean tumor weight, dose: 50.0 mg/kg/injection, schedule: Q01DX011 (ip), vehicle: other, higher = larger tumour) 91 % of control; (endpoint: mean tumor weight, dose: 100.0 mg/kg/injection, schedule: Q01DX011 (ip), vehicle: other, higher = larger tumour) 67 % of control.
Take `CC(=O)O[C@@H]1[C@@H](O)[C@H]2O[C@@H]3C=C(C)CC[C@]3(CO)[C@]1(C)[C@@]21CO1`: the T/C is 92 % of control under setting [1], 100 % of control under setting [2] and 97 % of control under setting [3].
Regarding `COc1cc(NC(=O)N(CCCl)N=O)cc(OC)c1OC`, the T/C is 103 % of control under setting [4]; 102 % of control under setting [5]; 101 % of control (endpoint: median survival time, dose: 12.5 mg/kg/injection, schedule: Q01DX009 (ip), vehicle: other, higher = longer survival); 94 % of control (endpoint: median survival time, dose: 25.0 mg/kg/injection, schedule: Q01DX009 (ip), vehicle: other, higher = longer survival); 99 % of control (endpoint: median survival time, dose: 50.0 mg/kg/injection, schedule: Q01DX009 (ip), vehicle: other, higher = longer survival).
`NC(CSC(c1ccccc1)(c1ccccc1)c1ccccc1)C(=O)O` (stereo not drawn): the T/C was 115 % of control (endpoint: mean tumor weight, dose: 12.0 mg/kg/injection, schedule: Q01DX011 (ip), vehicle: methylcellulose (MC), higher = larger tumour); 120 % of control (endpoint: median survival time, dose: 8.0 mg/kg/injection, schedule: Q01DX009 (ip), vehicle: Klucel (hydroxypropylcellulose) (HPC), higher = longer survival); 112 % of control (endpoint: median survival time, dose: 32.0 mg/kg/injection, schedule: Q01DX009 (ip), vehicle: Klucel (hydroxypropylcellulose) (HPC), higher = longer survival).
For the molecule `O=NN(CCCl)C(=O)Nc1ccc(CCCl)cc1`, the T/C was 91 % of control (endpoint: mean tumor weight, dose: 1.5 mg/kg/injection, schedule: Q01DX001 (ip), vehicle: carboxymethylcellulose (CMC), higher = larger tumour); 106 % of control (endpoint: mean tumor weight, dose: 3.0 mg/kg/injection, schedule: Q01DX001 (ip), vehicle: carboxymethylcellulose (CMC), higher = larger tumour); 90 % of control (endpoint: mean tumor weight, dose: 6.0 mg/kg/injection, schedule: Q01DX001 (ip), vehicle: carboxymethylcellulose (CMC), higher = larger tumour); 52 % of control (endpoint: mean tumor weight, dose: 12.0 mg/kg/injection, schedule: Q01DX001 (ip), vehicle: carboxymethylcellulose (CMC), higher = larger tumour).
`Cn1cnc([N+](=O)[O-])c1Sc1nc(N)nc2c1ncn2C1OC(CO)C(O)C1O` (stereo not drawn): the T/C reads like this: (endpoint: mean tumor weight, dose: 1.0 mg/kg/injection, schedule: Q01DX011 (ip), vehicle: other, higher = larger tumour) 76 % of control; (endpoint: mean tumor weight, dose: 2.0 mg/kg/injection, schedule: Q01DX011 (ip), vehicle: other, higher = larger tumour) 64 % of control; (endpoint: mean tumor weight, dose: 4.0 mg/kg/injection, schedule: Q01DX011 (ip), vehicle: other, higher = larger tumour) 42 % of control; (endpoint: mean tumor weight, dose: 8.0 mg/kg/injection, schedule: Q01DX011 (ip), vehicle: other, higher = larger tumour) 18 % of control and 38 % of control; (endpoint: mean tumor weight, dose: 16.0 mg/kg/injection, schedule: Q01DX011 (ip), vehicle: other, higher = larger tumour) 37 % of control.
Take `CCCCCC(CN(C)C)C(O)/C=C/c1ccccc1Cl` (stereo not drawn): the T/C (endpoint: median survival time, dose: 3.12 mg/kg/injection, schedule: Q01DX009 (ip), vehicle: saline, higher = longer survival) is 99 % of control; the T/C (endpoint: median survival time, dose: 6.25 mg/kg/injection, schedule: Q01DX009 (ip), vehicle: saline, higher = longer survival) was 95 % of control; the T/C (endpoint: median survival time, dose: 12.5 mg/kg/injection, schedule: Q01DX009 (ip), vehicle: saline, higher = longer survival) is 92 % of control; the T/C (endpoint: median survival time, dose: 25.0 mg/kg/injection, schedule: Q01DX009 (ip), vehicle: saline, higher = longer survival) was 99 % of control; the T/C (endpoint: median survival time, dose: 50.0 mg/kg/injection, schedule: Q01DX009 (ip), vehicle: saline, higher = longer survival) was 108 % of control.
As for `COc1ccc(-c2cc(=O)c3c(OC)c(OC)c(OC)c(OC)c3o2)c(OC)c1`, the T/C runs as follows: (endpoint: mean tumor weight, dose: 12.5 mg/kg/injection, schedule: Q01DX011 (sc), vehicle: steriod suspending solution, higher = larger tumour) 72 % of control; (endpoint: mean tumor weight, dose: 25.0 mg/kg/injection, schedule: Q01DX011 (sc), vehicle: steriod suspending solution, higher = larger tumour) 88 % of control; (endpoint: mean tumor weight, dose: 50.0 mg/kg/injection, schedule: Q01DX011 (sc), vehicle: steriod suspending solution, higher = larger tumour) 87 % of control; (endpoint: mean tumor weight, dose: 100.0 mg/kg/injection, schedule: Q01DX011 (sc), vehicle: steriod suspending solution, higher = larger tumour) 86 % of control.
On to `C=C1C(=O)O[C@@H]2[C@H](O)[C@@H](C)[C@@H]3C=CC(=O)[C@@]3(C)[C@H](OC(=O)C=C(C)C)[C@H]12`, for which the T/C was 95 % of control (endpoint: median survival time, dose: 0.63 mg/kg/injection, schedule: Q01DX009 (ip), vehicle: saline with Tween-80, higher = longer survival); 92 % of control under setting [1]; 99 % of control under setting [2]; 95 % of control under setting [3]; 118 % of control (endpoint: median survival time, dose: 10.0 mg/kg/injection, schedule: Q01DX009 (ip), vehicle: Klucel (hydroxypropylcellulose) (HPC), higher = longer survival); 92 % of control (endpoint: median survival time, dose: 10.0 mg/kg/injection, schedule: Q01DX009 (ip), vehicle: saline with Tween-80, higher = longer survival).
Turning to `Cc1c(N)nc(C(CC(N)=O)NCC(N)C(N)=O)nc1C(=O)NC(C(=O)NC(C)C(O)C(C)C(=O)NC(C(=O)NCCc1nc(-c2nc(C(=O)NCCC[S+](C)C)cs2)cs1)C(C)O)C(OC1OC(CO)C(O)C(O)C1OC1OC(CO)C(O)C(OC(N)=O)C1O)c1cnc[nH]1` (stereo not drawn), the T/C reads like this: (endpoint: median survival time, dose: 0.5 mg/kg/injection, schedule: Q01DX009 (ip), vehicle: Klucel (hydroxypropylcellulose) (HPC), higher = longer survival) 116 % of control; (endpoint: median survival time, dose: 1.0 mg/kg/injection, schedule: Q01DX009 (ip), vehicle: Klucel (hydroxypropylcellulose) (HPC), higher = longer survival) 121 % of control; (endpoint: median survival time, dose: 2.0 mg/kg/injection, schedule: Q01DX009 (ip), vehicle: Klucel (hydroxypropylcellulose) (HPC), higher = longer survival) 121 % of control; (endpoint: median survival time, dose: 4.0 mg/kg/injection, schedule: Q01DX009 (ip), vehicle: Klucel (hydroxypropylcellulose) (HPC), higher = longer survival) 121 % of control.
Turning to `O=C(N/N=C/c1ccc(O)cc1O)c1cccnc1`, the T/C was 91 % of control (endpoint: median survival time, dose: 6.25 mg/kg/injection, schedule: Q01DX009 (ip), vehicle: olive oil, sesame oil, peanut oil, higher = longer survival) and 101 % of control (endpoint: median survival time, dose: 25.0 mg/kg/injection, schedule: Q01DX009 (ip), vehicle: olive oil, sesame oil, peanut oil, higher = longer survival).
In the case of `CO[C@H]1C[C@H](O[C@H]2CC[C@]3(C=O)[C@H]4CC[C@]5(C)[C@@H](C6=CC(=O)OC6)CC[C@]5(O)[C@@H]4CC[C@]3(O)C2)O[C@H](C)[C@H]1O`, the T/C by setting is: (endpoint: mean tumor weight, dose: 2.6 mg/kg/injection, schedule: Q01DX011 (sc), vehicle: steriod suspending solution, higher = larger tumour) 59 % of control; (endpoint: mean tumor weight, dose: 4.0 mg/kg/injection, schedule: Q01DX011 (sc), vehicle: steriod suspending solution, higher = larger tumour) 78 % of control.
For `Cc1ccc(NC(=O)N(CCCl)N=O)cc1NC(=O)N(CCCl)N=O`, the T/C is, setting by setting: under setting [4], 93 % of control; under setting [5], 87 % of control.
In the case of `CC(=O)OC(C)(C)/C=C/C(=O)[C@](C)(O)[C@H]1[C@H](O)C[C@@]2(C)[C@@H]3CC=C4[C@@H](C=C(O)C(=O)C4(C)C)[C@]3(C)C(=O)C[C@]12C`, the T/C is, setting by setting: (endpoint: mean tumor weight, dose: 0.4 mg/kg/injection, schedule: Q01DX011 (ip), vehicle: carboxymethylcellulose (CMC), higher = larger tumour) 59 % of control; (endpoint: mean tumor weight, dose: 0.8 mg/kg/injection, schedule: Q01DX011 (ip), vehicle: carboxymethylcellulose (CMC), higher = larger tumour) 78 % of control; (endpoint: mean tumor weight, dose: 1.6 mg/kg/injection, schedule: Q01DX011 (ip), vehicle: carboxymethylcellulose (CMC), higher = larger tumour) 26 % of control; (endpoint: mean tumor weight, dose: 3.2 mg/kg/injection, schedule: Q01DX011 (ip), vehicle: carboxymethylcellulose (CMC), higher = larger tumour) 27 % of control; (endpoint: mean tumor weight, dose: 3.2 mg/kg/injection, schedule: Q01DX011 (ip), vehicle: saline, higher = larger tumour) 58 % of control; (endpoint: mean tumor weight, dose: 6.4 mg/kg/injection, schedule: Q01DX011 (ip), vehicle: saline, higher = larger tumour) 33 % of control. The T/C (endpoint: mean tumor weight, dose: 12.8 mg/kg/injection, schedule: Q01DX011 (ip), vehicle: saline, higher = larger tumour) was 52 % of control.
